Measured values taken from patent publication US20040266766A1, “Selective urokinase inhibitors” (Wilex AG, priority 2001, published 2004).
Where a name gives a salt, the structure may show the parent alone. Read-outs that look alike come from different tables or passages of the source.

Experiments:
FXa = FXa (Homo sapiens, UniProt P00742); test: In vitro inhibition of FXa (Ki according to Dixon); format: biochemical
Procedure: (§1) In order to determine the inhibitory activity, 200 μl Tris buffer (0.05 mol/l containing the inhibitor, 0.154 mol/l NaCl, pH 8.0), 25 μl substrate (Pefachrome uPA, Pefachrome PL or Pefabloc TH in H2O; Pentapharm Ltd, Basle, Switzerland) and 50 μl urokinase (Calbiochem-Novabiochem GmbH, Bad Soden, Germany) or another appropriate protease e.g. plasmin, thrombin or FXa are incubated for 10 minutes at 30° C. After ca. 30 minutes and 30 cycles the absorption is determined at 405 nm by means of a microplate reader (Mediators PHL, Aureon Biosystems, Vienna, Austria). The Ki values were determined according to Dixon by linear regression using a computer program.

[1] = Oral bioavailability and plasma kinetics in mice (serum concentration); format: in vivo, Balb/c mice; conditions: mouse; for concentration at 20 min / concentration at 40 min / concentration at 60 min: female, Balb/c, serum, po; for concentration at 20 min: sample at 20 minutes; for concentration at 40 min: sample at 40 minutes; for concentration at 60 min: sample at 60 minutes
Thrombin = Thrombin (Homo sapiens, UniProt P00734); test: In vitro inhibition of thrombin (Ki according to Dixon); format: biochemical
Procedure: as §1

urokinase (uPA) = biological target: T1, urokinase (uPA) (Homo sapiens, UniProt P00749); test: In vitro inhibition of urokinase (Ki according to Dixon, chromogenic substrate); format: biochemical
T1 construct: purchased Calbiochem-Novabiochem GmbH, Bad Soden, Germany
Procedure: as §1

Plasmin = Plasmin (Homo sapiens, UniProt P00747); test: In vitro inhibition of plasmin (Ki according to Dixon); format: biochemical
Procedure: as §1

PK = PK (Homo sapiens, UniProt P03952); test: In vitro inhibition of PK (Ki); format: biochemical; conditions: summary table
Procedure: as §1

Caco-2 cell monolayers = test: Caco-assay: transport across Caco-2 cell monolayers; format: in vitro ADME, human; conditions: for % amount in the basolateral compartment: 10 μg/ml apical, four hours
Procedure: Transport of the compounds WX-508, WXC-316, WXC-318, WXC-324, WXC-340, WX-532, WX-538, WX-550 and WX-582 across Caco-2 cell monolayers was investigated. In this experiment the bioavailability of the said compounds after oral administration was assessed.
Caco-2-cells (American Type Culture Collection, Rockville, Md., USA) were cultured in Dulbecco's modified Eagle medium (DMEM) (Life Technologies, Gibco BRL, UK) containing 10% vol/vol heat-denatured foetal calf serum (FCS), 1% vol/vol non-essential amino acids, 160 U/ml benzylpenicillin and 100 U/ml streptomycin (Sigma Chemical, St. Louis, Mo., USA). The cells are kept at 37° C. in an atmosphere comprising 95% air and 5% CO2 at 90% relative air humidity. The cells are cultured in […] culture flasks, the medium being replaced every second day and the cells are trypsinized once per week.
For the transport investigations the Caco-2 cells are cultured on porous polycarbonate filter membranes having a pore size of 0.4 μm and a surface of 4.7 cm^2 in clusters of 6 wells (Costar Transwell, Badhoevedorp, Netherlands). The cells are inoculated on each filter at an initial density of 10^4 cells/cm^2. These cells are kept at 37° C. in one of the atmospheres described above. The medium is replaced every second day for a period of three weeks.
On the day of the transport experiment the culture medium was replaced by the same volume of Hank's balanced saline solution (HBSS) buffered with 30 mM HEPES at pH 7.2 (transport medium) and the cells are allowed to equilibrate for 1 hour. Afterwards the apical medium is replaced by 1.5 ml of a solution containing one of the compounds in HBSS/HEPES (10 μg/ml). Cell monolayers are incubated for four hours. Samples of the apical and basolateral compartments are removed at the end of the experiments and used to quantitatively determine the transport of the respective compounds.
The transepithelial electric resistance (TEER) is measured before and after equilibration using a Milicell ERS meter which was connected to a pair of electrodes in order to ensure the integrity of the monolayers formed on the filters. TEER is also measured at the end of the experiments to ensure that the cell monolayer remains coherent.
Samples are taken from the apical and the basolateral side and analysed in a beta counter after adding a scintillation cocktail. All experiments were carried out three times.

[2] = 30 mg/kg, 30 mg/kg oral, read-out: c in the serum 1st analysis
[3] = 30 mg/kg, 30 mg/kg oral, read-out: c in the serum 2nd analysis
[4] = 300 mg/kg, 300 mg/kg oral, read-out: c in the serum 1st analysis
[5] = 300 mg/kg, 300 mg/kg oral, read-out: c in the serum 2nd analysis
[6] = 10 mg/kg i.v., time of sample collection 0
[7] = 10 mg/kg i.v., time of sample collection 10
[8] = 10 mg/kg i.v., time of sample collection 30
[9] = list of test substances of Example 17, read-out: Ki human uPA
[10] = summary table, read-out: Ki uPA
[11] = 7.5 mg/kg, 7.5 mg/kg oral, read-out: c in the serum 1st analysis
[12] = 75 mg/kg, 75 mg/kg oral, read-out: c in the serum 1st analysis

Chain of Plasmin (P00747 581-810 limits assumed, species assumed): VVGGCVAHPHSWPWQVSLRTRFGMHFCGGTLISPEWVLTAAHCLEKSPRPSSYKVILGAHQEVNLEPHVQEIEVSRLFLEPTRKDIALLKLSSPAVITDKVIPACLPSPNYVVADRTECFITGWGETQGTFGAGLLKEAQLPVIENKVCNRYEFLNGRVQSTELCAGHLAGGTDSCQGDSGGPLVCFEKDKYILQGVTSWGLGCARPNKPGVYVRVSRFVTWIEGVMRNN
Chain of Plasmin (P00747 97-580 partner limits assumed, species assumed): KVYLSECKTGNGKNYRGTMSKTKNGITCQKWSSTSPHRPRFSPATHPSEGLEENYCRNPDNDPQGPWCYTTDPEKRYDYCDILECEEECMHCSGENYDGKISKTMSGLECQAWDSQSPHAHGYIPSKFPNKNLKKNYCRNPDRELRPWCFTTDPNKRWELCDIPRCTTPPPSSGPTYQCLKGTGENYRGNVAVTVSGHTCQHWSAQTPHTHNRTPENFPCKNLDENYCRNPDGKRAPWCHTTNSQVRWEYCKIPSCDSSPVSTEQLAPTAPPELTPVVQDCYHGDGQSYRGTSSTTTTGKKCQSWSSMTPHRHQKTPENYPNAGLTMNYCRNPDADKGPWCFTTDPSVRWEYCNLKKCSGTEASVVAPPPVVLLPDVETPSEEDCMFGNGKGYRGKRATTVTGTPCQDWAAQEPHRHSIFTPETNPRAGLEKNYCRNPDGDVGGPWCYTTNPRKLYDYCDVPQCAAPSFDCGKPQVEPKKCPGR
Chain of PK (P03952 20-638): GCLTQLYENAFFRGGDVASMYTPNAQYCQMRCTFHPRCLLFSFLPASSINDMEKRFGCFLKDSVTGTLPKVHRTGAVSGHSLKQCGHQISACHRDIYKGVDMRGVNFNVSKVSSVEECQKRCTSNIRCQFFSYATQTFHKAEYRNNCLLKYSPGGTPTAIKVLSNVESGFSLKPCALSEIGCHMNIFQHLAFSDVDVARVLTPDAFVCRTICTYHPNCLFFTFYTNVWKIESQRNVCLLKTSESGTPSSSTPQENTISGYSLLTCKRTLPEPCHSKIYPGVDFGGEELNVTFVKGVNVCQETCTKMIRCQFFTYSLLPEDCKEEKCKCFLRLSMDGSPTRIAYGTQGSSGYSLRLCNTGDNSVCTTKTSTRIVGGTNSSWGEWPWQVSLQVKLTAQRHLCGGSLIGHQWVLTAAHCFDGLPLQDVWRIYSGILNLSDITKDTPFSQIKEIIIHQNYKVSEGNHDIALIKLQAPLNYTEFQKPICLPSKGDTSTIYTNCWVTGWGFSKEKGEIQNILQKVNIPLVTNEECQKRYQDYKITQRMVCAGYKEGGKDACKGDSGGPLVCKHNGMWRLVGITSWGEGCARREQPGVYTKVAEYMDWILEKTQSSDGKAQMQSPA
Chain of FXa (P00742 235-488 limits assumed): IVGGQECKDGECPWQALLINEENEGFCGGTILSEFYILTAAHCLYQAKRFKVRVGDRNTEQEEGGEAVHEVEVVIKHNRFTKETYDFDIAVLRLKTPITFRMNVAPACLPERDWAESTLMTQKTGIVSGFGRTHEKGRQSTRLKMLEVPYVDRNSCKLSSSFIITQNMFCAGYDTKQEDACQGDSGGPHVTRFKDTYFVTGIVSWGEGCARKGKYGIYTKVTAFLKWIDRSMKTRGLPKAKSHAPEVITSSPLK
Chain of FXa (P00742 41-179 partner limits assumed): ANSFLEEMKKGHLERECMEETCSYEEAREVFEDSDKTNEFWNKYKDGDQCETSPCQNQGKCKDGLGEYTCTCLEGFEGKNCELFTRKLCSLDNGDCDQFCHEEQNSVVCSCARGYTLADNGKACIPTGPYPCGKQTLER

Ki (FXa)	concentration at 20 min [1, 2]	concentration at 40 min [1, 2]	concentration at 60 min [1, 2]	concentration at 20 min [1, 4]	concentration at 20 min [1, 5]	concentration at 40 min [1, 4]	Ki Thrombin (Thrombin)	Ki (urokinase (uPA); [9])	Ki (urokinase (uPA); read-out: Ki uPA)	Ki (PK)	% amount in the basolateral compartment (Caco-2 cell monolayers; first value column)	% amount in the basolateral compartment (Caco-2 cell monolayers; second value column)	% amount in the basolateral compartment (Caco-2 cell monolayers; third value column)	Caco-2 assay % basolateral (Caco-2 cell monolayers; first series, first value)	Caco-2 assay % basolateral (Caco-2 cell monolayers; first series, second value)	Caco-2 assay % basolateral (Caco-2 cell monolayers; first series, third value)	Caco-2 assay % basolateral (Caco-2 cell monolayers; second series, first value)	Caco-2 assay % basolateral (Caco-2 cell monolayers; second series, second value)	Caco-2 assay % basolateral (Caco-2 cell monolayers; second series, third value)	Structure (SMILES)	further results
32.4 µM	500 ng/mL	5900 ng/mL	400 ng/mL	6000 ng/mL	7200 ng/mL	21800 ng/mL	no inh. at 100 μM *)	0.09 µM	0.09 µM	875 µM	0.2%	0.2%	3.6%	0.2%	0.2%	3.4%	0.1%	0.1%	3.6%	N=C(N)Nc1ccc(CNC(=O)CNC(=O)C(CO)NS(=O)(=O)Cc2cccc([N+](=O)[O-])c2)cc1 (stereo not drawn) [WX-C316, 3-Nitrobenzyl-sulfonyl-(D)-Ser-Gly-(4-guanidinobenzyl)amide hydrochloride]	concentration at 20 min [1, 3]: 600 ng/mL; concentration at 40 min [1, 3]: 7100 ng/mL; concentration at 60 min [1, 3]: 500 ng/mL; concentration at 40 min [1, 5]: 32100 ng/mL; concentration at 60 min [1, 4]: 5300 ng/mL; concentration at 60 min [1, 5]: 5800 ng/mL; c in the serum 1st analysis [1, 6]: 45.4 µg/mL; c in the serum 2nd analysis [1, 6]: 67.5 µg/mL; c in the serum 1st analysis [1, 7]: 12.4 µg/mL; c in the serum 2nd analysis [1, 7]: 14.3 µg/mL; c in the serum 1st analysis [1, 8]: 2.7 µg/mL; c in the serum 2nd analysis [1, 8]: 2.6 µg/mL; Ki Thrombin (Thrombin; summary table): no inh. at 100 μM *); Ki (urokinase (uPA); [10]): 0.09 µM; Ki Plasmin (Plasmin): no inh. at 100 μM *); Ki Plasmin (Plasmin; summary table): no inh. at 100 μM *)
								0.01 µM	0.01 µM	58 µM	0.4%	3.1%	5.2%	0%	3.1%	5.2%	0.4%	2.9%	3.0%	C[C@@H](C(=O)NCc1ccc(NC(=N)N)cc1)N(C)C(=O)[C@@H](CO)NS(=O)(=O)Cc1ccc(Cl)cc1 [WX-582, 4-chlorobenzylsulfonyl-(D)-Ser-N-Me-Ala-(4-guanidinobenzyl)amide]	concentration at 20 min [1, 11]: 0 ng/mL; concentration at 40 min [1, 11]: 0 ng/mL; concentration at 60 min [1, 11]: 0 ng/mL; concentration at 20 min [1, 12]: 1000 ng/mL; concentration at 40 min [1, 12]: 700 ng/mL; concentration at 60 min [1, 12]: 400 ng/mL; c in the serum 1st analysis ([1]; 2.5 mg/kg i.v., time of sample collection 0): 11.5 µg/mL; c in the serum 1st analysis ([1]; 2.5 mg/kg i.v., time of sample collection 10): 0.8 µg/mL; c in the serum 1st analysis ([1]; 2.5 mg/kg i.v., time of sample collection 30): 0.1 µg/mL
							no inh. at 100 μM *)		0.83 µM											N=C(N)Nc1ccc(CNC(=O)NNC(=O)[C@@H](CO)NS(=O)(=O)Cc2ccccc2)cc1 [WX-544, BzSO2-(D)-Ser-AzaGly-(4-guanidinobenzyl)amide]	
									3.1 µM		0.1%	0.1%	2.0%	0.1%	0.1%	2.9%	0%	0%	3.0%	N=C(N)Nc1ccc(CNC(=O)CNC(=O)C(CO)NC(=O)Nc2cccc(C(=O)O)c2)cc1 (stereo not drawn) [WX-C324, 3-Carboxyphenyl-aminocarbonyl-(D)-Ser-Gly-(4-guanidinobenzyl)amide hydrochloride]	
	1500 ng/mL	10900 ng/mL	900 ng/mL	5800 ng/mL	6700 ng/mL	2900 ng/mL	no inh. at 100 μM *)	0.016 µM	0.016 µM	49 µM	0%	0%	0%	0/0/0%	0/0/0%	0/0/0%				C[C@H](NC(=O)C(CO)NS(=O)(=O)Cc1ccccc1)C(=O)NCc1ccc(NC(=N)N)cc1 (stereo partly drawn) [WX-532, Benzylsulfonyl-(D)-Ser-Ala-(4-guanidinobenzyl)amide hydrochloride]	concentration at 40 min [1, 5]: 3300 ng/mL; concentration at 60 min [1, 4]: 12800 ng/mL; concentration at 60 min [1, 5]: 15000 ng/mL; c in the serum 1st analysis [1, 6]: 61.7 µg/mL; c in the serum 2nd analysis [1, 6]: 68.8 µg/mL; c in the serum 1st analysis [1, 7]: 3.8 µg/mL; c in the serum 2nd analysis [1, 7]: 3.5 µg/mL; c in the serum 1st analysis [1, 8]: 11.4 µg/mL; c in the serum 2nd analysis [1, 8]: 11.2 µg/mL; Ki Thrombin (Thrombin; summary table): no inh. at 100 μM *); Ki (urokinase (uPA); [10]): 0.016 µM; Ki (Plasmin): 40 µM
> 1000 µM									2.1 µM											N=C(N)Nc1ccc(S(=O)(=O)NCCNC(=O)C(CO)NS(=O)(=O)Cc2ccccc2)cc1 (stereo not shown) [WX-568, N-[2-(4-guanidino-benzenesulfonylamino)-ethyl]-3-hydroxy-2-phenylmethanesulfonylamino-propionamide hydrochloride]	Ki (Thrombin): > 1000 µM
